Data: US10844051B2, “Substituted oxazoles for the treatment of cancer” (THE ROYAL INSTITUTION FOR THE ADCANCEMENT OF …, priority 2015, dated 2020)
Values belong to the compound of their own block, whether it stands above or below them.

What was measured:
Type in all cases: cell-based
[1] = target: T1, human STING (hSTING) (Homo sapiens, UniProt Q86WV6); assay: hSTING ISRE-luc reporter assay in 293T cells; settings: 24 hours
T1 construct: expressed in transfected cells; host or cells: 293T
Protocol: ISRE-luc (reporter), pRL-TK (internal control) and hSTING-expressing plasmids were transiently transfected into 293T cells. Cells were exposed to DMSO vehicle control or compounds for 24 hours. Experiments were done in triplicate.

[2] = target: T2, human GATA2 (Homo sapiens, UniProt P23769); assay: GATA2-dependent reporter assay in IHH cells; settings: GATA-Luc reporter, 48 h
T2 construct: expressed in transfected cells; host or cells: IHH
T2 sequence (P23769 1-480): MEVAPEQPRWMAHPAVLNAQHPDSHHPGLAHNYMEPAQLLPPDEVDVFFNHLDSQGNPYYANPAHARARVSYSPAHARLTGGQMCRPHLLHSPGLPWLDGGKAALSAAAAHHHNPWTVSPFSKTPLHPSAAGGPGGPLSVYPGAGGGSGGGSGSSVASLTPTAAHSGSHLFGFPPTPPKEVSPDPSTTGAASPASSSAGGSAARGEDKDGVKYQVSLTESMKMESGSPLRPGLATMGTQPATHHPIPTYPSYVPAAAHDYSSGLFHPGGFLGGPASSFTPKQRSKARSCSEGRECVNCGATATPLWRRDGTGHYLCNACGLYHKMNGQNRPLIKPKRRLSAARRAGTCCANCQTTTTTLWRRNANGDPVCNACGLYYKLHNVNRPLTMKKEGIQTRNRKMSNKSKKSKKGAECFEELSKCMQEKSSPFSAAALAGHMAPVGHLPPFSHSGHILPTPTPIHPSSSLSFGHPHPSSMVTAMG
Protocol: K7174 is a known GATA2 inhibitor. The IHH cells were transiently transfected with empty vector (for the NT) or human GATA2-expressing plasmid as well as pRL-TK (internal control) and GATA-Luc reporter plasmids. Cells were exposed to DMSO vehicle or compounds for 48 h. Experiments were in triplicate.

[3] = test system: hSTING and/or mSTING; assay: hSTING- or mSTING-dependent ISRE-luc reporter assay in 293T cells; settings: 24 hours
Protocol: ISRE-luc (reporter), pRL-TK (internal control) and hSTING- or mSTING-expressing plasmids were transiently transfected into 293T cells. Cells were exposed to DMSO vehicle control or compounds for 24 hours. Experiments were done in triplicate.

T1 sequence (Q86WV6 whole entry H232R): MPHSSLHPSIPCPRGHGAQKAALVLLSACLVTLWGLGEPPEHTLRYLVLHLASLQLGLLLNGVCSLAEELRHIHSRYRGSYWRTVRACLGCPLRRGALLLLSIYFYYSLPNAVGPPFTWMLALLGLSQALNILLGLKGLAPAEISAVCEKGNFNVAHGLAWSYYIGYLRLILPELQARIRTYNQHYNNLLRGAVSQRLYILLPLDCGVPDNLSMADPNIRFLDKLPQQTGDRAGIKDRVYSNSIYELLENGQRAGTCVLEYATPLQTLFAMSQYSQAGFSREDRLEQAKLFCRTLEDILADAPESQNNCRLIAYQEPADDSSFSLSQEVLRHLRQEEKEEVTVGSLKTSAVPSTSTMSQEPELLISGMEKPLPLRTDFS

SMILES: FC(F)(F)c1ccccc1-c1nc(CCCc2c[nH]c3ccccc23)oc1-c1ccccc1C(F)(F)F [Compound 677]
activation of hSTING in ISRE-luc reporter assay [1]: activate human STING (hSTING)

SMILES: FC(F)(F)c1ccc(-c2nc(CCc3c[nH]c4ccccc34)oc2-c2ccc(C(F)(F)F)cc2)cc1 [Compound 918]
activation of hSTING in ISRE-luc reporter assay [1]: activate hSTING

SMILES: Cc1ccc(/C(=C\C(=O)N2CCC(O)(c3ccccc3)CC2)CCc2ccccc2)cc1 [Compound 870]
GATA2 inhibition in GATA2-dependent reporter assay [2]: GATA2 inhibitors

SMILES: COc1cccc(-c2nc(Cc3c[nH]c4ccccc34)oc2-c2cccc(O)c2)c1 [Compound 719]
GATA2 inhibition in GATA2-dependent reporter assay [2]: GATA2 inhibitors

SMILES: N#Cc1ccc(N2CCN(Cc3nc(-c4cccc(F)c4)c(-c4cccc(F)c4)[nH]3)CC2)cc1 [Compound 1104]
activation of hSTING and/or mSTING in ISRE-luc reporter assay [3]: activate hSTING and/or mSTING

SMILES: O=C(c1ccccc1)N1CCN(Cc2nc(-c3ccccc3)c(-c3ccccc3)[nH]2)CC1 [Compound 1122]
activation of hSTING and/or mSTING in ISRE-luc reporter assay [3]: activate hSTING and/or mSTING

SMILES: Oc1cccc(N2CCN(Cc3nc(-c4cccc(F)c4)c(-c4cccc(F)c4)[nH]3)CC2)c1 [Compound 1181]
activation of hSTING and/or mSTING in ISRE-luc reporter assay ([3]; 20 μM): activate hSTING and/or mSTING

SMILES: Fc1cccc(-c2nc(/C=C/c3ccsc3)oc2-c2cccc(F)c2)c1 [Compound 1036]
activation of hSTING and/or mSTING in ISRE-luc reporter assay ([3]; 10 μM): activate hSTING and/or mSting

SMILES: O=C(c1ccco1)N1CCN(Cc2nc(-c3ccccc3)c(-c3ccccc3)o2)CC1 [Compound 1126]
activation of hSTING and/or mSTING in ISRE-luc reporter assay [3]: activate hSTING and/or mSTING

SMILES: Cc1ccc(/C(=C\C(=O)N2CCC(O)(c3ccccc3)CC2)CCc2cccc(F)c2)cc1 [Compound 882]
GATA2 inhibition in GATA2-dependent reporter assay [2]: GATA2 inhibitors

SMILES: N#Cc1ccc(CN2CCN(Cc3nc(-c4ccccc4)c(-c4ccccc4)o3)CC2)cc1 [Compound 1361]
activation of hSTING and/or mSTING in ISRE-luc reporter assay [3]: activate hSTING and/or mSTING

SMILES: N#CCN(CCc1c[nH]c2ccccc12)Cc1nc(-c2ccccc2)c(-c2ccccc2)o1 [Compound 1188]
activation of hSTING and/or mSTING in ISRE-luc reporter assay [3]: activate hSTING and/or mSTING

SMILES: COc1ccc2[nH]cc(CCN(Cc3nc(-c4cccc(F)c4)c(-c4cccc(F)c4)[nH]3)S(=O)(=O)c3ccccc3[N+](=O)[O-])c2c1 [Compound 1039]
activation of hSTING and/or mSTING in ISRE-luc reporter assay [3]: activate hSTING and/or mSTING

SMILES: O=[N+]([O-])c1ccccc1S(=O)(=O)N(CCc1c[nH]c2ccccc12)Cc1nc(-c2ccccc2)c(-c2ccccc2)[nH]1 [Compound 1373]
activation of hSTING and/or mSTING in ISRE-luc reporter assay [3]: activate hSTING and/or mSTING

SMILES: CNC(=O)c1ccc(C2CCN(Cc3nc(-c4cccc(F)c4)c(-c4cccc(F)c4)[nH]3)CC2)cc1 [Compound 1140]
activation of hSTING and/or mSTING in ISRE-luc reporter assay [3]: activate hSTING and/or mSTING

SMILES: Clc1cccc(-c2nc(CCCc3c[nH]c4ccccc34)oc2-c2cccc(Cl)c2)c1 [Compound 762]
activation of hSTING in ISRE-luc reporter assay [1]: activate human STING (hSTING)

SMILES: O=C(c1cccc(F)c1)N1CCN(Cc2nc(-c3ccccc3)c(-c3ccccc3)o2)CC1 [Compound 1180]
activation of hSTING and/or mSTING in ISRE-luc reporter assay ([3]; 20 μM): activate hSTING and/or mSTING

SMILES: c1ccc(-c2nc(CN3CCC(c4c[nH]c5ccccc45)CC3)oc2-c2ccccc2)cc1 [Compound 1124]
activation of hSTING and/or mSTING in ISRE-luc reporter assay [3]: activate hSTING and/or mSTING

SMILES: Oc1ccccc1N1CCN(Cc2nc(-c3ccccc3)c(-c3ccccc3)o2)CC1 [Compound 1184]
activation of hSTING and/or mSTING in ISRE-luc reporter assay ([3]; 20 μM): activate hSTING and/or mSTING

SMILES: O=C1Nc2ccccc2C1CCc1nc(-c2cccc(F)c2)c(-c2cccc(F)c2)o1 (centres unmarked) [Compound 866]
GATA2 inhibition in GATA2-dependent reporter assay [2]: GATA2 inhibitors

SMILES: Fc1ccccc1CN1CCN(Cc2nc(-c3ccccc3)c(-c3ccccc3)o2)CC1 [Compound 1357]
activation of hSTING and/or mSTING in ISRE-luc reporter assay [3]: activate hSTING and/or mSTING

SMILES: Cn1cc(CNCc2nc(-c3cccc(F)c3)c(-c3cccc(F)c3)[nH]2)c2ccccc21 [Compound 1096]
activation of hSTING and/or mSTING in ISRE-luc reporter assay [3]: activate hSTING and/or mSTING

SMILES: Oc1cccc(N2CCN(Cc3nc(-c4ccccc4)c(-c4ccccc4)o3)CC2)c1 [Compound 1182]
activation of hSTING and/or mSTING in ISRE-luc reporter assay ([3]; 20 μM): activate hSTING and/or mSTING

SMILES: Cc1cccnc1CN1CCN(Cc2nc(-c3ccccc3)c(-c3ccccc3)o2)CC1 [Compound 1366]
activation of hSTING and/or mSTING in ISRE-luc reporter assay [3]: activate hSTING and/or mSTING

SMILES: c1ccc(-c2nc(CNCCc3c[nH]c4ccccc34)[nH]c2-c2ccccc2)cc1 [Compound 1369]
activation of hSTING and/or mSTING in ISRE-luc reporter assay [3]: activate hSTING and/or mSTING

SMILES: COc1ccc(-c2nc(Cc3c[nH]c4ccccc34)oc2-c2ccc(OC)cc2)cc1 [Compound 660]
activation of hSTING in ISRE-luc reporter assay [1]: activate hSTING

SMILES: O=C(c1ccccc1)N1CCN(Cc2nc(-c3ccccc3)c(-c3ccccc3)o2)CC1 [Compound 1123]
activation of hSTING and/or mSTING in ISRE-luc reporter assay [3]: activate hSTING and/or mSTING

Other lines, results leading:

GATA2 inhibition in GATA2-dependent reporter assay [2]: GATA2 inhibitors
SMILES: C(=C\c1cccs1)/c1nc(-c2ccccc2)c(-c2ccccc2)o1 [Compound 685]

GATA2 inhibition in GATA2-dependent reporter assay [2]: GATA2 inhibitors
SMILES: O=C(/C=C(/CCc1ccccc1)c1cccc(C(F)(F)F)c1)N1CCC(O)(c2ccccc2)CC1 [Compound 869]

GATA2 inhibition in GATA2-dependent reporter assay [2]: GATA2 inhibitors
SMILES: COc1ccc(/C(=C\C(=O)N2CCC(O)(c3ccccc3)CC2)CCc2ccccc2)cc1OC [Compound 883]

activation of hSTING in ISRE-luc reporter assay [1]: activate hSTING
SMILES: COc1ccccc1-c1nc(CCc2c[nH]c3ccccc23)oc1-c1ccccc1OC [Compound 917]

activation of hSTING in ISRE-luc reporter assay [1]: activate hSTING
SMILES: c1coc(-c2nc(CCc3c[nH]c4ccccc34)oc2-c2ccco2)c1 [Compound 919]

GATA2 inhibition in GATA2-dependent reporter assay [2]: GATA2 inhibitors
SMILES: c1ccc(-c2nc(CCc3c[nH]c4ccccc34)oc2-c2ccccc2)cc1 [Compound 631]

GATA2 inhibition in GATA2-dependent reporter assay [2]: GATA2 inhibitors
SMILES: COc1cccc(/C=C/c2nc(-c3ccccc3)c(-c3ccccc3)o2)c1 [Compound 684]

GATA2 inhibition in GATA2-dependent reporter assay [2]: GATA2 inhibitors
SMILES: O=C(/C=C(/C=C/c1cccc(C(F)(F)F)c1)c1ccccc1)N1CCC(O)(c2ccccc2)CC1 [Compound 872]

GATA2 inhibition in GATA2-dependent reporter assay [2]: GATA2 inhibitors
SMILES: COc1ccc(CC/C(=C/C(=O)N2CCC(O)(c3ccccc3)CC2)c2ccccc2)cc1 [Compound 858]

activation of hSTING in ISRE-luc reporter assay [1]: activate hSTING
SMILES: Fc1ccc(-c2nc(CCCc3c[nH]c4ccccc34)oc2-c2ccc(F)cc2)cc1 [Compound 671]

activation of hSTING in ISRE-luc reporter assay [1]: activate hSTING
SMILES: COc1ccccc1-c1nc(CCCc2c[nH]c3ccccc23)oc1-c1ccccc1OC [Compound 916]

activation of hSTING in ISRE-luc reporter assay [1]: activate hSTING
SMILES: FC(F)(F)c1ccccc1-c1nc(CCc2c[nH]c3ccccc23)oc1-c1ccccc1C(F)(F)F [Compound 920]

GATA2 inhibition in GATA2-dependent reporter assay [2]: GATA2 inhibitors
SMILES: COc1ccc(/C(=C\C(=O)N2CCC(O)(c3ccccc3)CC2)CCc2ccccc2)cc1 [Compound 871]

GATA2 inhibition in GATA2-dependent reporter assay [2]: GATA2 inhibitors
SMILES: O=C(C/C(=C\c1ccccc1)c1ccccc1)N1CCC(O)(c2ccccc2)CC1 [Compound 880]

GATA2 inhibition in GATA2-dependent reporter assay [2]: GATA2 inhibitors
SMILES: Fc1cccc(-c2[nH]c(Cc3c[nH]c4ccccc34)nc2-c2ccco2)c1 [Compound 839]

GATA2 inhibition in GATA2-dependent reporter assay [2]: GATA2 inhibitors
SMILES: O=C(/C=C(/Cc1ccccc1)c1ccccc1)N1CCC(O)(c2ccccc2)CC1 [Compound 881]

GATA2 inhibition in GATA2-dependent reporter assay [2]: GATA2 inhibitors
activation of hSTING in ISRE-luc reporter assay [1]: activate hSTING
SMILES: c1coc(-c2nc(CCCc3c[nH]c4ccccc34)oc2-c2ccco2)c1 [Compound 831]

GATA2 inhibition in GATA2-dependent reporter assay [2]: GATA2 inhibitors
SMILES: c1ccc(-c2nc(CCCc3c[nH]c4ccccc34)oc2-c2ccccc2)cc1 [Compound 632]

GATA2 inhibition in GATA2-dependent reporter assay [2]: GATA2 inhibitors
SMILES: O=C(/C=C(/CCc1cccc(C(F)(F)F)c1)c1ccccc1)N1CCC(O)(c2ccccc2)CC1 [Compound 868]

GATA2 inhibition in GATA2-dependent reporter assay [2]: GATA2 inhibitors
SMILES: O=C(/C=C(/CCc1ccccc1)c1ccccc1)N1CCC(O)(c2ccccc2)CC1 [Compound 859]

GATA2 inhibition in GATA2-dependent reporter assay [2]: GATA2 inhibitors
SMILES: O=C(/C=C(/CCc1cccc(F)c1)c1ccccc1)N1CCC(O)(c2ccccc2)CC1 [Compound 860]

activation of hSTING in ISRE-luc reporter assay [1]: activate hSTING
SMILES: FC(F)(F)c1cc(CCc2nc(-c3ccccc3)c(-c3ccccc3)o2)cc(C(F)(F)F)c1 [Compound 689]
